From patent publication EP1369114A1, “Use of tryptophan metabolites as pharmaceutical agents” (Terness, Peter, Priv. Doz. Dr., priority 2002, dated 2003)

Test system: T cells activated with allogeneic dendritic cells
Assay: Allogeneic restimulation, with donor-specific or third-party DCs, of T cells activated with allogeneic DCs
Assay type: cell-based, human
Design: restimulation with donor-specific DCs: dose or concentration left out as unconfirmed
Text: • (a) Allogeneic T-cell response. DCs were infected with recombinant IDO-adeno-GFP (DC-IDO-GFP), IDO-adeno (DC-IDO) or with control adenoviruses (DC-adeno) at a MOI (multiplicity of infection) up to 500 for 2 days. Lymphocytes (PBMCs) were separated from peripheral blood of healthy donors by density gradient centrifugation and typed for HLA antigens. Only HLA-DR-different responder lymphocytes were used for DC-induced stimulation. Native DCs only, lymphocytes only, native DCs + allogeneic lymphocytes, DC-IDO-GFP + allogeneic lymphoytes, DC-IDO + allogeneic lymphoytes, DC-adeno + allogeneic lymphocytes (each time 10^5 DC + 10^5 lymphocytes in 0.2ml medium) were cultured in RPMI 1640 medium (Gibco BRL Life Technologies GmbH, Eggenstein, Germany) with 10% fetal calf serum (FCS) (final tryptophan concentration 5.25 mg/l = 25.69 uM) and Penicillin G/Streptomycin. After 5 days, ^3[H]-thymidin was added for 12hrs and the number of counts (counts per minute = cpm) determined in a (3-counter (Inotech Biosystems, Lansing, MI). In order to verify whether IDO expression or adenovirus infection harm the DCs, 10^5 cells were infected with IDO-adeno-GFP, IDO-adenovirus, or adenovirus only at a stepwise decreasing MOI (500, 250, 125, ........ 3.9) and cell viability was measured in FACS following double staining with 7-AAD and anti-CD83 antibody-PE. The percentage of dead cells never exceeded 30% for any MOI following IDO-adeno-GFP- or IDO-adeno-infection and 40% following adenovirus(control)-infection. Moreover, these values were not higher than those of native DCs cultured for the same period of time. […] After 2 days, cell proliferation was assessed by measuring ^3[H]-thymidin incorporation (cpm) as described. • (c) Tryptophan metabolite titration curves. […] After 2 days, ^3[H] thymidin was added and the number of counts recorded. […] After another 2 days, ^3[H] thymidin was added and cpm determined. […] 3[H] thymidin was added to all cultures and the number of counts (cpm) determined. • (e) Tryptophan titration curve. […]

Nc1ccccc1C(=O)CC(N)C(=O)O (stereo not drawn) [kynurenine]
restimulation with third-party DCs (extremely high doses (1500µM or 750µM) of kynurenine): only minimal reactions
restimulation with donor-specific DCs (kynurenine in primary stimulation, 5 days, washed): cannot be restimulated with DCs from the same donor
restimulation with third-party DCs (medium or low doses (375µM - 47µM) of kynurenine): significant restimulation
